Our source for the T/C values is PubChem BioAssay AID192 (DTP/NCI, 2004).

Molecules are shown by their SMILES. Values joined by “and” are separate entries in the source; they are usually repeats but may differ in a detail not shown here. Identical values can stand only once. Toxic doses and inconclusive results are not listed. Peptide text beside a SMILES is read from it.

This assay relates to BDF1 mice, B16 melanoma ip, median survival T/C. Kind of assay: NCI In Vivo Anticancer Drug Screen. Data for tumor model B16 Melanoma (intraperitoneal) in B6D2F1 (BDF1) mice. The following applies: endpoint: median survival time, higher = longer survival. The procedure, abridged: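 Mice with transplantable tumors; drug vs vehicle groups; endpoint survival or tumor size; value = T/C.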

Where [1] appears, read: dose: 100.0 mg/kg/injection, schedule: Q01DX009 (ip), vehicle: saline with Tween-80.
Where [2] appears, read: dose: 200.0 mg/kg/injection, schedule: Q01DX009 (ip), vehicle: saline with Tween-80.
Where [3] appears, read: dose: 12.5 mg/kg/injection, schedule: Q01DX009 (ip), vehicle: Klucel (hydroxypropylcellulose) (HPC).
Where [4] appears, read: dose: 25.0 mg/kg/injection, schedule: Q01DX009 (ip), vehicle: Klucel (hydroxypropylcellulose) (HPC).
The mark [5] stands for this setting: dose: 50.0 mg/kg/injection, schedule: Q01DX009 (ip), vehicle: Klucel (hydroxypropylcellulose) (HPC).
[6] abbreviates: dose: 100.0 mg/kg/injection, schedule: Q01DX009 (ip), vehicle: Klucel (hydroxypropylcellulose) (HPC).
Where [7] appears, read: dose: 200.0 mg/kg/injection, schedule: Q01DX009 (ip), vehicle: Klucel (hydroxypropylcellulose) (HPC).
The mark [8] stands for this setting: dose: 12.5 mg/kg/injection, schedule: Q01DX009 (ip), vehicle: saline with Tween-80.
[9] abbreviates: dose: 1.56 mg/kg/injection, schedule: Q01DX009 (ip), vehicle: saline.
[10] abbreviates: dose: 3.12 mg/kg/injection, schedule: Q01DX009 (ip), vehicle: saline.
Where [11] appears, read: dose: 6.25 mg/kg/injection, schedule: Q01DX009 (ip), vehicle: saline.

In the case of `O=C(NCCN1CC1)C(=O)NCCN1CC1`, the T/C reads like this: (dose: 1.5 mg/kg/injection, schedule: Q01DX009 (ip), vehicle: saline with Tween-80) 153 % of control; (dose: 3.12 mg/kg/injection, schedule: Q04DX003 (ip), vehicle: saline with Tween-80) 178 % of control; (dose: 6.25 mg/kg/injection, schedule: Q04DX003 (ip), vehicle: saline with Tween-80) 168 % of control.
Turning to `CCCCCCCC(N)=O`, the T/C reads like this: under setting [1], 100 % of control; under setting [2], 106 % of control.
In the case of `Clc1ccc2sc3c(c2c1)CCNC3`, the T/C is 94 % of control under setting [3], 111 % of control under setting [4], 111 % of control under setting [5] and 105 % of control under setting [6].
Take `Cc1cc2ccccc2c[n+]1C`: the T/C is 95 % of control (dose: 12.5 mg/kg/injection, schedule: Q04DX003 (ip), vehicle: saline); 95 % of control (dose: 25.0 mg/kg/injection, schedule: Q04DX003 (ip), vehicle: saline); 95 % of control (dose: 50.0 mg/kg/injection, schedule: Q04DX003 (ip), vehicle: saline).
For the molecule `CC[CH2][Sn]([Cl])([Cl])[CH2]CC.Oc1ccccc1C=NCCN=Cc1ccccc1O`, the T/C was 95 % of control (dose: 0.6 mg/kg/injection, schedule: Q01DX009 (ip), vehicle: gum acacia); 100 % of control (dose: 0.61 mg/kg/injection, schedule: Q01DX009 (ip), vehicle: gum acacia); 92 % of control and 100 % of control (dose: 1.25 mg/kg/injection, schedule: Q01DX009 (ip), vehicle: gum acacia); 92 % of control and 94 % of control (dose: 2.5 mg/kg/injection, schedule: Q01DX009 (ip), vehicle: gum acacia); 90 % of control and 97 % of control (dose: 5.0 mg/kg/injection, schedule: Q01DX009 (ip), vehicle: gum acacia).
Consider `COc1ccc2c(c1)C(OC)C1c3c(cc4c(c3-2)OCO4)CCN1C` (centres undefined), for which the T/C is 123 % of control (dose: 1.0 mg/kg/injection, schedule: Q01DX009 (ip), vehicle: acid diluted with saline) and 89 % of control (dose: 2.0 mg/kg/injection, schedule: Q01DX009 (ip), vehicle: acid diluted with saline).
Consider `CC1COS(=O)O1` (centres undefined), for which the T/C is, setting by setting: (dose: 10.0 mg/kg/injection, schedule: Q01DX009 (ip), vehicle: saline sonified) 102 % of control; (dose: 20.0 mg/kg/injection, schedule: Q01DX009 (ip), vehicle: saline sonified) 100 % of control; (dose: 40.0 mg/kg/injection, schedule: Q01DX009 (ip), vehicle: saline sonified) 102 % of control.
`COc1ccc(NC(=S)Nc2ccccn2)cc1`: the T/C by setting is: under setting [6], 107 % of control; under setting [1], 100 % of control; under setting [7], 100 % of control; under setting [2], 100 % of control; (dose: 400.0 mg/kg/injection, schedule: Q01DX009 (ip), vehicle: Klucel (hydroxypropylcellulose) (HPC)) 92 % of control.
On to `COC1C(O)C(C)OC(OC2CC(O)C3(C)C(CCC4C3CCC3(C)C(C5=CC(=O)OC5)CCC43O)C2)C1O` (centres undefined) (tested in a mixture with another compound), for which the T/C runs as follows: (dose: 2.0 mg/kg/injection, schedule: Q01DX009 (ip), vehicle: saline) 99 % of control; (dose: 4.0 mg/kg/injection, schedule: Q01DX009 (ip), vehicle: saline) 97 % of control; (dose: 8.0 mg/kg/injection, schedule: Q01DX009 (ip), vehicle: saline) 97 % of control; (dose: 16.0 mg/kg/injection, schedule: Q01DX009 (ip), vehicle: saline) 94 % of control; (dose: 32.0 mg/kg/injection, schedule: Q01DX009 (ip), vehicle: saline) 94 % of control; (dose: 64.0 mg/kg/injection, schedule: Q01DX009 (ip), vehicle: saline) 88 % of control.
`ClC1CCC[N-]C1.ClC1CCC[N-]C1.O=C(O)CC(=O)O.[Pt+2]` (centres undefined): the T/C under setting [8] was 96 % of control; the T/C (dose: 25.0 mg/kg/injection, schedule: Q01DX009 (ip), vehicle: saline with Tween-80) is 95 % of control; the T/C (dose: 50.0 mg/kg/injection, schedule: Q01DX009 (ip), vehicle: saline with Tween-80) was 94 % of control; the T/C under setting [1] is 93 % of control; the T/C under setting [2] is 89 % of control.
On to `Nc1ccc(OCc2ccc(S(=O)(=O)F)c(Cl)c2)c(Cl)c1`, for which the T/C was 110 % of control under setting [6] and 110 % of control under setting [7].
In the case of `COc1ccc(/C=C/c2cnc3ccccc3n2)cc1OC`, the T/C is 100 % of control (dose: 75.0 mg/kg/injection, schedule: Q01DX009 (ip), vehicle: Klucel (hydroxypropylcellulose) (HPC)); 100 % of control (dose: 150.0 mg/kg/injection, schedule: Q01DX009 (ip), vehicle: Klucel (hydroxypropylcellulose) (HPC)); 92 % of control (dose: 300.0 mg/kg/injection, schedule: Q01DX009 (ip), vehicle: Klucel (hydroxypropylcellulose) (HPC)).
As to `NC(CCC(=O)O)C(=O)NC(CCC(=O)O)C(=O)O` (stereo not drawn) (H-Glu-Glu-OH; configuration not given here), the T/C runs as follows: (dose: 50.0 mg/kg/injection, schedule: Q01DX009 (ip), vehicle: saline) 97 % of control; (dose: 100.0 mg/kg/injection, schedule: Q01DX009 (ip), vehicle: saline) 96 % of control; (dose: 200.0 mg/kg/injection, schedule: Q01DX009 (ip), vehicle: saline) 93 % of control; (dose: 400.0 mg/kg/injection, schedule: Q01DX009 (ip), vehicle: saline) 91 % of control.
Turning to `Cc1ccc2c(c1)CC(C)([CH2][Hg][Cl])O2` (centres undefined), the T/C was 100 % of control (dose: 0.75 mg/kg/injection, schedule: Q01DX009 (ip), vehicle: Klucel (hydroxypropylcellulose) (HPC)); 95 % of control (dose: 0.75 mg/kg/injection, schedule: Q04DX003 (ip), vehicle: Klucel (hydroxypropylcellulose) (HPC)); 93 % of control (dose: 1.5 mg/kg/injection, schedule: Q01DX009 (ip), vehicle: Klucel (hydroxypropylcellulose) (HPC)); 100 % of control (dose: 1.5 mg/kg/injection, schedule: Q04DX003 (ip), vehicle: Klucel (hydroxypropylcellulose) (HPC)); 92 % of control and 95 % of control (dose: 3.0 mg/kg/injection, schedule: Q01DX009 (ip), vehicle: Klucel (hydroxypropylcellulose) (HPC)); 93 % of control and 95 % of control (dose: 3.0 mg/kg/injection, schedule: Q04DX003 (ip), vehicle: Klucel (hydroxypropylcellulose) (HPC)).
For the molecule `CC(CN1CCN(CCOCCO)CC1)CN1c2ccccc2Sc2ccccc21` (centres undefined), the T/C was 108 % of control under setting [9]; 97 % of control under setting [10]; 102 % of control under setting [11]; 100 % of control and 101 % of control (dose: 25.0 mg/kg/injection, schedule: Q01DX009 (ip), vehicle: saline).
In the case of `CC(C)(C)c1cc([N+](=O)[O-])cc([N+](=O)[O-])c1O`, the T/C is 99 % of control (dose: 1.56 mg/kg/injection, schedule: Q01DX009 (ip), vehicle: saline with Tween-80); 96 % of control (dose: 3.13 mg/kg/injection, schedule: Q01DX009 (ip), vehicle: saline with Tween-80); 93 % of control (dose: 6.25 mg/kg/injection, schedule: Q01DX009 (ip), vehicle: saline with Tween-80); 89 % of control under setting [8].
As to `O=C1C=CC(=O)c2c(O)c(CBr)c(CBr)c(O)c21`, the T/C was 102 % of control (dose: 6.25 mg/kg/injection, schedule: Q01DX009 (ip), vehicle: Klucel (hydroxypropylcellulose) (HPC)); 101 % of control under setting [3]; 100 % of control under setting [4]; 94 % of control under setting [5].
In the case of `O=C1C=C(Nc2ccccc2)c2ccccc2C1=O`, the T/C is, setting by setting: under setting [3], 93 % of control; under setting [4], 105 % of control; under setting [5], 88 % of control; under setting [6], 87 % of control.
Regarding `CCCCNC1=C(N2CC2)C(=O)C(NCCCC)=C(N2CC2)C1=O`, the T/C runs as follows: (dose: 1.25 mg/kg/injection, schedule: Q01DX009 (ip), vehicle: saline) 113 % of control; (dose: 2.5 mg/kg/injection, schedule: Q01DX009 (ip), vehicle: saline) 112 % of control.
For the molecule `CS(=O)(=O)Nc1ccccc1N`, the T/C is, setting by setting: under setting [9], 95 % of control; under setting [10], 99 % of control; under setting [11], 98 % of control.
Regarding `CCOC(=O)C(=CN1CCCCC1)C(=O)OCC`, the T/C by setting is: under setting [1], 99 % of control; (dose: 100.0 mg/kg/injection, schedule: Q04DX003 (ip), vehicle: saline with Tween-80) 95 % of control; under setting [2], 100 % of control; (dose: 200.0 mg/kg/injection, schedule: Q04DX003 (ip), vehicle: saline with Tween-80) 97 % of control; (dose: 400.0 mg/kg/injection, schedule: Q04DX003 (ip), vehicle: saline with Tween-80) 95 % of control.
